Experimental findings from patent US7786108B2, “Compounds and method for treating dyslipidemia” (Eli Lilly and Company, priority 2004, dated 2010) are described below.

Data set [1] deals with transgenic mice that express both human CETP and human apolipoprotein A-1. Description: In vivo assay of plasma lipids: elevation of HDL cholesterol. The settings on record: Mus musculus; single oral dose 30 mg/kg; HDL cholesterol in serum at 8 hr after administration; relative to a control; read-out: % HDL cholesterol increase. An excerpt:
Additional serum lipids can be analyzed by enzymatic methods.

What is called melting point is the temperature, or range, at which the solid turns liquid.

On to `COC(=O)c1cccc(CN2CCC[C@H](N(Cc3cc(C(F)(F)F)cc(C(F)(F)F)c3)c3nnn(C)n3)c3cc(C)c(C(F)(F)F)cc32)c1` [Example 90, (S)-3-{5-[(3,5-Bis-trifluoromethyl-benzyl)-(2-methyl-2H-tetrazol-5-yl)-amino]-7-methyl-8-trifluoromethyl-2,3,4,5-tetrahydro-benzo[b]azepin-1-ylmethyl}-benzoic acid methyl ester], for which the melting point is 62 to 65 °C (dec.).

The molecule `Cc1cc2c(cc1C(F)(F)F)N(Cc1cccc(C(=O)O)c1)CCC[C@@H]2N(Cc1cc(C(F)(F)F)cc(C(F)(F)F)c1)c1nnn(C)n1` [Example 91, (S)-3-{5-[(3,5-Bis-trifluoromethyl-benzyl)-(2-methyl-2H-tetrazol-5-yl)-amino]-7-methyl-8-trifluoromethyl-2,3,4,5-tetrahydro-benzo[b]azepin-1-ylmethyl}-benzoic acid] came in with a melting point of 83 to 86 °C.

In turn, `Cc1cc2c(cc1C(F)(F)F)N(Cc1ccc(C(=O)O)cc1)CCC[C@@H]2N(Cc1cc(C(F)(F)F)cc(C(F)(F)F)c1)c1nnn(C)n1` [Example 89, (S)-4-{5-[(3,5-Bis-trifluoromethyl-benzyl)-(2-methyl-2H-tetrazol-5-yl)-amino]-7-methyl-8-trifluoromethyl-2,3,4,5-tetrahydro-benzo[b]azepin-1-ylmethyl}-benzoic acid] registered a melting point of 95 to 98 °C. In addition, the change in vivo at 30 mg/kg in data set [1] came out at 186%.
